# Values joined by “and” are separate entries in the source; they are usually repeats but may differ in a detail not shown here. Equal entries are not always repeated.
# How the values were obtained:
# Assay in all cases: LanthaScreen Eu Kinase Binding Assay, panel of 486 biochemical kinase assays
# various kinases [1] = target: various kinases (Homo sapiens, UniProt Q9UM73, C1156Y); conditions: ALK C1156Y
# various kinases [2] = target: various kinases (Homo sapiens, UniProt P57059); conditions: kinase SIK1; LanthaScreen Binding
# various kinases (Homo sapiens, UniProt P57059), sequence (P57059 whole entry): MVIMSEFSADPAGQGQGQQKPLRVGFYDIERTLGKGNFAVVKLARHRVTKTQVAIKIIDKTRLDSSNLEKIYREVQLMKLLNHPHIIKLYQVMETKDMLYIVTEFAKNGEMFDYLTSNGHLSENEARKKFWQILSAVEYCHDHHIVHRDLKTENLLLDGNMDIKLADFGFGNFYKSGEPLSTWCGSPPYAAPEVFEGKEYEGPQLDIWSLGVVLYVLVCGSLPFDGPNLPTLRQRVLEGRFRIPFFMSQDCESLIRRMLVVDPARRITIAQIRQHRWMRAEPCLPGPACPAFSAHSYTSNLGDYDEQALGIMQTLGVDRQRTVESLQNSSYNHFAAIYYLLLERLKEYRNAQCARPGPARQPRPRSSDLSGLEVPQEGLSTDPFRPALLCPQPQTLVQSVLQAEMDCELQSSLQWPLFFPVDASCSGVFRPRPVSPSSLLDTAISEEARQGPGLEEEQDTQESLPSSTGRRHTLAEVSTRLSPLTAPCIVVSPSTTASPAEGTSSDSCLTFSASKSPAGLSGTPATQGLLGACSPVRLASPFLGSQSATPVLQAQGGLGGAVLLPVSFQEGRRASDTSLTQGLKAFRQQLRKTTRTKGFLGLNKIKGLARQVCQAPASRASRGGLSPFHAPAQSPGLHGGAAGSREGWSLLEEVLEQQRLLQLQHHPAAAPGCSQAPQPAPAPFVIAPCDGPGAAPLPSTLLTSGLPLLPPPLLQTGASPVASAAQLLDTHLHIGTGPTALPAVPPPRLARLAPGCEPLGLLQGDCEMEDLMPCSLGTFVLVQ
# various kinases [3] = target: T1, various kinases (Homo sapiens, UniProt Q9UKI8); conditions: kinase TLK1; LanthaScreen Binding
# T1 sequence (Q9UKI8 1-766): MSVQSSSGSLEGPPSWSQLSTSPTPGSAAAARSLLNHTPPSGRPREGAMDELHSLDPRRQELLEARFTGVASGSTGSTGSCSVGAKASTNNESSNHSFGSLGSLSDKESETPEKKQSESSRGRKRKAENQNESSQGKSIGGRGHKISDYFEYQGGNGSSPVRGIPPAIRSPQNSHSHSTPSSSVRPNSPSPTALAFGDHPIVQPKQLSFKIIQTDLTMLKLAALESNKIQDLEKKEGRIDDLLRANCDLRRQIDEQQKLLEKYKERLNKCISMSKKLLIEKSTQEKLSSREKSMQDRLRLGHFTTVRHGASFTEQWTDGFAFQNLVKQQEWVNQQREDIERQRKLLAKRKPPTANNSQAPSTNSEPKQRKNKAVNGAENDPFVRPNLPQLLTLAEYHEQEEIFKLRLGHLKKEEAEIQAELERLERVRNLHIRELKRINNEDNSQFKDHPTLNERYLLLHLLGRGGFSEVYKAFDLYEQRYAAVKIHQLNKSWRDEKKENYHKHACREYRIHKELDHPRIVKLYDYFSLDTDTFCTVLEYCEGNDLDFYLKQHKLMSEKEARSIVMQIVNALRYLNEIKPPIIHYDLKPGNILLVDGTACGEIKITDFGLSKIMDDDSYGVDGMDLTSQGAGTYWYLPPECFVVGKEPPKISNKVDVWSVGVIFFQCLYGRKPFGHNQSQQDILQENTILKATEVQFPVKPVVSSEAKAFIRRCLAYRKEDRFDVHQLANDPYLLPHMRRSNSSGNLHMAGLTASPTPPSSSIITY
# various kinases [4] = target: various kinases (Homo sapiens, UniProt P07949, G691S); conditions: kinase RET G691S; LanthaScreen Binding
# various kinases (Homo sapiens, UniProt P07949, G691S), sequence (P07949 29-1114 G691S): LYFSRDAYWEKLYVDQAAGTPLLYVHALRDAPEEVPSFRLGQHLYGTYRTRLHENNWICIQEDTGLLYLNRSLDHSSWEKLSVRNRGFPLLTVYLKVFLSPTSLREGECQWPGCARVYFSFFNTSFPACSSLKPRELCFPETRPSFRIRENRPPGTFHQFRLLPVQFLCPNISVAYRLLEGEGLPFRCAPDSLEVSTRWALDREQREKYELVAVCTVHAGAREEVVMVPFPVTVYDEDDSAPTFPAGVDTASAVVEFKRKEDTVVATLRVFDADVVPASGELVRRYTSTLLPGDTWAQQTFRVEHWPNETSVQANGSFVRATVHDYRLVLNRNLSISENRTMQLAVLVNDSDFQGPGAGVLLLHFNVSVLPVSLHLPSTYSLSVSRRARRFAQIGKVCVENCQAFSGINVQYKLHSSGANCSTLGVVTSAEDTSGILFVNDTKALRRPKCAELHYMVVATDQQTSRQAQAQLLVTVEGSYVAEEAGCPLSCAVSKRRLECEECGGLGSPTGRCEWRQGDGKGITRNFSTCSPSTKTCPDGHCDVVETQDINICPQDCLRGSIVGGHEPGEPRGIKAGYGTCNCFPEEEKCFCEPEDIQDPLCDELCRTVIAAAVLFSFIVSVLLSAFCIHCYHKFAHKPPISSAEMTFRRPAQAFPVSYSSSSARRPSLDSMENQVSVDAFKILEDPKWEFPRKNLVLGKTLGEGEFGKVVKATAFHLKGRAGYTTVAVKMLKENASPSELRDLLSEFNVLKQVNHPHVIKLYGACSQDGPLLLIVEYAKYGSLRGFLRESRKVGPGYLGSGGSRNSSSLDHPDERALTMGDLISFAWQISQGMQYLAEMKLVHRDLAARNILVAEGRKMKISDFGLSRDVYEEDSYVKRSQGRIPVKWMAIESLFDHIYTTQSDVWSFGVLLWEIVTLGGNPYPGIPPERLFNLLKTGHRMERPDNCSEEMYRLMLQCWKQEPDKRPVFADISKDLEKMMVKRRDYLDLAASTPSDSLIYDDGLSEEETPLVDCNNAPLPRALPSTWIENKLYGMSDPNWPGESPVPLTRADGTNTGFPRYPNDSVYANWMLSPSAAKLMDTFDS
# various kinases [5] = target: various kinases (Homo sapiens, UniProt P07949, M918T); conditions: kinase RET M918T; LanthaScreen Binding
# various kinases (Homo sapiens, UniProt P07949, M918T), sequence (P07949 29-1114 M918T): as the sequence (P07949 29-1114 G691S) above, with S663G, M890T counted along it
# various kinases [6] = target: various kinases (Homo sapiens, UniProt P27037); conditions: ACVR2A
# various kinases (Homo sapiens, UniProt P27037), sequence (P27037 20-513): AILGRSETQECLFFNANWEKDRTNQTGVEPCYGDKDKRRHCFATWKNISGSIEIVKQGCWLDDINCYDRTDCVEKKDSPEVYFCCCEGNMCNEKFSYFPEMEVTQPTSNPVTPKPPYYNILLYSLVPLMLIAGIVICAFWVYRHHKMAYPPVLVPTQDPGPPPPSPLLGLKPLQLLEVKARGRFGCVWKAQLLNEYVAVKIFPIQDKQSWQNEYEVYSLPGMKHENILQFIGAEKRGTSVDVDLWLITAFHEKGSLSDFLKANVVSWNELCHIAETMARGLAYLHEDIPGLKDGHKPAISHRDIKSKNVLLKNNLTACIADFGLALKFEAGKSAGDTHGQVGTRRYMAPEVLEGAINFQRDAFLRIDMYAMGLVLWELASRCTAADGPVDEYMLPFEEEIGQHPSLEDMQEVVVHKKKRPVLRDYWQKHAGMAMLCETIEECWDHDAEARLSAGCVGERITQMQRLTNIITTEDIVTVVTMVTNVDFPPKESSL
# various kinases [7] = target: various kinases (Homo sapiens, UniProt P10721, V654A); conditions: KIT V654A
# various kinases (Homo sapiens, UniProt P10721, V654A), sequence (P10721 26-976 V654A): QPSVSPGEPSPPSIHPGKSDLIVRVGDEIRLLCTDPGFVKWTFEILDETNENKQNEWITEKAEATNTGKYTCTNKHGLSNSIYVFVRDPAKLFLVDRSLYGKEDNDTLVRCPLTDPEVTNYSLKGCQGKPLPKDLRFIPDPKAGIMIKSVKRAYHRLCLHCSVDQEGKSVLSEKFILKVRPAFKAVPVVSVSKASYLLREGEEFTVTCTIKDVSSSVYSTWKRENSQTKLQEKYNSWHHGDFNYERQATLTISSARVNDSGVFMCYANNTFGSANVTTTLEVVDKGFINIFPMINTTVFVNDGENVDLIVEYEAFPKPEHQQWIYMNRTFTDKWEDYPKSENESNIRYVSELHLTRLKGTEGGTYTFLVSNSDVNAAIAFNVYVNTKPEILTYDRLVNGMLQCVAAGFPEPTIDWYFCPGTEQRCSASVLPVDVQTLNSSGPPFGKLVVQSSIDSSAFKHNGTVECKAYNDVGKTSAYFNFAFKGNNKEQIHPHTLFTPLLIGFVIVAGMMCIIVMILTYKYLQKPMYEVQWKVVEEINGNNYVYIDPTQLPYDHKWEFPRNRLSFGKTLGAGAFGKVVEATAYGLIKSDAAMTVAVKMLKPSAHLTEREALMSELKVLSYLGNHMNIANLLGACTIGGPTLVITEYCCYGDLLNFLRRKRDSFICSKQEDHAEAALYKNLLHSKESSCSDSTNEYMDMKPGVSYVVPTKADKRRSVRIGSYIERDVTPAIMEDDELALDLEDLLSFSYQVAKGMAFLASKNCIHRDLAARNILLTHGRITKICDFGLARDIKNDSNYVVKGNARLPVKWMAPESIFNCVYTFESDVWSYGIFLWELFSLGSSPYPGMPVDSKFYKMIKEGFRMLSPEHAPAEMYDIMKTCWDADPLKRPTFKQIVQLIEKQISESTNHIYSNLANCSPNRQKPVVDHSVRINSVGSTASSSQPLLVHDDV
# various kinases [8] = target: T2, various kinases (Homo sapiens, UniProt Q7L7X3); conditions: kinase TAOK1; LanthaScreen Binding
# T2 sequence (Q7L7X3 1-1001): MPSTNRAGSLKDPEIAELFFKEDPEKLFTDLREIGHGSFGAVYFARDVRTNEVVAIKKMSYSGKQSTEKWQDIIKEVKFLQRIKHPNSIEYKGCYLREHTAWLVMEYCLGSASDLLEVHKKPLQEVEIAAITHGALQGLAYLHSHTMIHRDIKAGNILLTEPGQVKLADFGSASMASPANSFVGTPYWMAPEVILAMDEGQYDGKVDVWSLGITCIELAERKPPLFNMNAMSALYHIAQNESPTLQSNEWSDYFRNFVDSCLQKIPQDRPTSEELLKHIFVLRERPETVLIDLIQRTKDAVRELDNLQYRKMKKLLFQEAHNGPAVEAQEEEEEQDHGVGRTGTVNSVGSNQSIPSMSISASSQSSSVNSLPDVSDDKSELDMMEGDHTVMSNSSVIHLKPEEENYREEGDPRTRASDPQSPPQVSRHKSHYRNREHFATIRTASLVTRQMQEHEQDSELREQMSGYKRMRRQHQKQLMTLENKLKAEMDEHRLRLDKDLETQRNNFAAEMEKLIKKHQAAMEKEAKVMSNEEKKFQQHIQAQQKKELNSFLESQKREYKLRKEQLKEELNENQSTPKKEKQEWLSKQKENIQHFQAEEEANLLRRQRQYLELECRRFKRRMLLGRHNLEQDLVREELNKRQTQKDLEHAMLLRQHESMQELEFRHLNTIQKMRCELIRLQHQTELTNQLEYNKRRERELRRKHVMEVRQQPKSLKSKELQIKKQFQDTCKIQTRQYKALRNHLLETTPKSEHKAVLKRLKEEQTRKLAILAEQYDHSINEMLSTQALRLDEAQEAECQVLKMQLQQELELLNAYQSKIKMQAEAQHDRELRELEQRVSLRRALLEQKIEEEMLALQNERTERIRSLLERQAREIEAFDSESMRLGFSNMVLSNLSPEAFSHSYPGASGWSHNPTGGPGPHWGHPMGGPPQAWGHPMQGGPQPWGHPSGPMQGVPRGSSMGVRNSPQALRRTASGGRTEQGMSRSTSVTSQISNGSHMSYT
# various kinases [9] = target: various kinases (Homo sapiens, UniProt P07949, V804M); conditions: kinase RET V804M; LanthaScreen Binding
# various kinases (Homo sapiens, UniProt P07949, V804M), sequence (P07949 29-1114 V804M): as the sequence (P07949 29-1114 G691S) above, with S663G, V776M counted along it
# various kinases [10] = target: various kinases (Homo sapiens, UniProt P22612); conditions: kinase PRKACG (PRKAC gamma); LanthaScreen Binding
# various kinases (Homo sapiens, UniProt P22612), sequence (P22612 whole entry): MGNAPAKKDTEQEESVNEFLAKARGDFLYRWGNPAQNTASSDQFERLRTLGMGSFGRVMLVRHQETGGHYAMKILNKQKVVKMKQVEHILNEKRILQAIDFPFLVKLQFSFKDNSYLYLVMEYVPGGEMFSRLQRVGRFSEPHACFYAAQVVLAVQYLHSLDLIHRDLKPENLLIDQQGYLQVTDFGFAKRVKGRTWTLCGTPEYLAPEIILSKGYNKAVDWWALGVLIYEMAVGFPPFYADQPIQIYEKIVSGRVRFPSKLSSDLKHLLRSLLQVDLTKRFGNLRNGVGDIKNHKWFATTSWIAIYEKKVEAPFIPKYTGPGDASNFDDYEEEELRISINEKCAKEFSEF
# various kinases [11] = target: various kinases (Homo sapiens, UniProt Q12866, A708S); conditions: MERTK (cMER) A708S
# various kinases (Homo sapiens, UniProt Q12866, A708S), sequence (Q12866 21-999 A708S): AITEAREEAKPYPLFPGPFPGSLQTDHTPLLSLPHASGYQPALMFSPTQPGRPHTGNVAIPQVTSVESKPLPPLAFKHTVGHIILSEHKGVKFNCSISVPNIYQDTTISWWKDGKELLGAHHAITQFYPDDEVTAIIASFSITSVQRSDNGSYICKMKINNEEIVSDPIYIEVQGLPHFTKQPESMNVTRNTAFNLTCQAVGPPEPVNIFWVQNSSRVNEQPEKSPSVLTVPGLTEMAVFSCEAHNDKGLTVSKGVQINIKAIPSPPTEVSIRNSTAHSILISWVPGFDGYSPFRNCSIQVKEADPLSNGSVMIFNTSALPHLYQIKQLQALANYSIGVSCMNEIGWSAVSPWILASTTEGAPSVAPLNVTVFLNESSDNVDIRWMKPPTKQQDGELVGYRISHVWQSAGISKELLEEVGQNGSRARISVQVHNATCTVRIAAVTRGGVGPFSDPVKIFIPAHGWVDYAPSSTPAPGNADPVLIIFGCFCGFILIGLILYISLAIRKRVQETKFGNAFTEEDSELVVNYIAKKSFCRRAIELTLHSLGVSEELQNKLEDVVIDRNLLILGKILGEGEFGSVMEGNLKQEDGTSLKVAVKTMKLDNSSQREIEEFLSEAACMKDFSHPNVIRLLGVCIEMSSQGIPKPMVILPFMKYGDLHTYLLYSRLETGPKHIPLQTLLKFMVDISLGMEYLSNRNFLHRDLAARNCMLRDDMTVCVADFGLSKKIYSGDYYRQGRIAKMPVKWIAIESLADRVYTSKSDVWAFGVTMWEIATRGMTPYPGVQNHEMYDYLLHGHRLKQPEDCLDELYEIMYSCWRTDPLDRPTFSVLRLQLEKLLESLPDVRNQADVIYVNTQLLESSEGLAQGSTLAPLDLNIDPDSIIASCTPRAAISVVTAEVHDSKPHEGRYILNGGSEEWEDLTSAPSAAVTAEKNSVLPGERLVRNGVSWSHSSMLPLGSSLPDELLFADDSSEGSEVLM
smiles,measurement,setting,value
COc1ccc2c(c1)[C@]1(C[C@H]1c1ccc3c(/C=C/c4ccc(CN5C[C@@H](C)O[C@@H](C)C5)cc4)n[nH]c3c1)C(=O)N2 [CFI-400945],% Inhibition,various kinases [1],47% and 51%
same,% Inhibition Average,various kinases [2],6%
same,% Inhibition Duplicate #1,various kinases [2],5%
same,% Inhibition Duplicate #2,various kinases [2],6%
same,% Inhibition Average,various kinases [3],0%
same,% Inhibition Duplicate #1,various kinases [3],-1%
same,% Inhibition Duplicate #2,various kinases [3],0%
same,% Inhibition Average,various kinases [4],-1%
same,% Inhibition Duplicate #1,various kinases [4],-11%
same,% Inhibition Duplicate #2,various kinases [4],9%
same,% Inhibition Average,various kinases [5],27%
same,% Inhibition Duplicate #1,various kinases [5],26%
same,% Inhibition Duplicate #2,various kinases [5],28%
same,% Inhibition,various kinases [6],18% and 15%
same,% Inhibition,various kinases [7],6%
same,% Inhibition Average,various kinases [8],14%
same,% Inhibition Duplicate #1,various kinases [8],15%
same,% Inhibition Duplicate #2,various kinases [8],13%
same,% Inhibition Average,various kinases [9],34%
same,% Inhibition Duplicate #1,various kinases [9],29%
same,% Inhibition Duplicate #2,various kinases [9],39%
same,% Inhibition Average,various kinases [10],18%
same,% Inhibition Duplicate #1,various kinases [10],25%
same,% Inhibition Duplicate #2,various kinases [10],11%
same,% Inhibition,various kinases [11],7% and 2%

# From article PMC5762315, “Inhibition of polo-like kinase 4 (PLK4): a new therapeutic option for rhabdoid tumors and pediatric medulloblastoma” (Oncotarget, 2017)
